Laboratory results: patent US6538019B1, “Functional emulsions” (Japan as represented by Director of National Food Research …, priority 2000, dated 2003)

Experiments:
[1] = cited from earlier work
[2] = Stability of the emulsion (time to phase separation of E/O emulsion); type: physicochemical; conditions: concentration of the emulsifying agent 5%; ratio of triolein and ethanol 8:2
Experimental: First, sunflower seed oil (having the triolein purity 90% or more, as produced by Nippon Lever B. V.) as a continuous phase, 95% ethanol as a dispersed phase, and polyglycerol oleic acid ester (MO750, HLB12.9) as an emulsifying agent (surfactant) were prepared.
Next, polyphenol was dissolved in ethanol. As the polyphenol to be used, catechin, anthocyanin, quercetin can be listed.
Thereafter, the ethanol, to which 1 wt % polyglycerol oleic acid ester (PG) was added, and triolein (sunflower seed oil) were stirred at 3000 rpm for ten minutes with a homogenizer (Polytron: PT3000), thereby attempting the production of an emulsion.
Furthermore, the possibility of using emulsifying agents other than polyglycerol oleic acid ester (PG) was examined. In Table 2, DAO750 indicates decaglycerol decaester, PO500 indicates hexaglycerol pentaester, PO310 indicates tetraglycerol pentaester, MO310 indicates tetraglycerol monoester, MO500 indicates hexaglycerol monoester, and MO750 indicates polyglycerol oleic acid ester.

[3] = Stability of the emulsions examined by a turbidity method; type: physicochemical; conditions: addition amount of PG varied within 1 wt %-5 wt %
From the text: Next, the addition amount of polyglycerol oleic acid ester (PG) was variously changed within the range of 1 wt %-5 wt % and the stability of the emulsions was examined by a turbidity method.

[4] = Dispersion behavior by small-angle X-ray scattering method (SAXS); type: physicochemical
From the text: Further, the dispersion behavior of the polyglycerol oleic acid ester (PG) was examined using a small-angle X-ray scattering method (SAXS). It turned out that the polyglycerol oleic acid ester (PG) in ethanol was a molecular assembly having the radius of inertia of about 7 Å and the polyglycerol oleic acid ester (PG) in triolein was a molecular assembly having the radius of inertia of about 90 Å. As a result, it can be said that the stability of emulsions can be achieved by increasing the ratio of triolein with respect to ethanol.

| Radius of inertia of molecular assembly ([4]; in ethanol) | Radius of inertia of molecular assembly ([4]; in triolein) | Substance | Solubility with respect to water [1] | Stability of E/O emulsion by emulsifying agent [2] | Change in emulsion stability [3] |
| --- | --- | --- | --- | --- | --- |
|  |  | anthocyanin | slightly soluble in water |  |  |
| about 7 Å | about 90 Å | polyglycerol oleic acid ester [MO750] |  | +++ (The sample did not cause the phase separation until five months.) | A conspicuous change in emulsion stability was not found |
